Measurements taken from publication PMC12346692, “SUL-150 Limits Vascular Remodeling and Ventricular Failure in Pulmonary Arterial Hypertension” (International Journal of Molecular Sciences, 2025).
Where “and” joins values, the source holds several entries; their conditions need not be identical. Identical values can stand only once. Marks after values point to notes of the source that are not given here.

What was measured:
[1] = test system: right ventricle of PAH rats; assay: Right ventricle mtDNA copy number, radical scavenging, lipid peroxidation and ATP; settings: ~6 mg·kg^−1·day^−1 i.p. minipump, 28 days
[2] = test system: PGC1α, mtTFA, PINK1, Parkin; assay: Immunoblotting of right ventricle for mitogenesis and mitophagy markers; type: in vivo, rat; settings: PAH rats, ~6 mg·kg^−1·day^−1 i.p. minipump, 28 days; result in words
Procedure: Protein lysates were prepared from the right ventricle using RIPA buffer (ThermoFisher, Waltham, MA, USA) and supplemented with 0.5% proteinase inhibitor cocktail (Sigma-Aldrich, St. Louis, MO, USA) and 0.5% Halt™ phosphatase inhibitor (ThermoFisher, Waltham, MA, USA). […] Twenty micrograms of total protein per sample was loaded on mini-PROTEAN precast gradient gels (4–15% denaturing SDS–polyacrylamide gel; Bio-Rad, Hercules, CA, USA), separated by gel electrophoresis, and blotted onto nitrocellulose membrane using the Trans-Blot turbo system (Bio-Rad, Hercules, CA, USA) according to standard protocols. Blots were blocked with 5% bovine serum albumin in 20 mM Tris-HCl (pH 7.4) at room temperature for 30 min and incubated at 4 °C overnight with primary antibodies to mtTFA (sc-166965, Santa Cruz Biotechnology, Dallas, TX, USA), PGC1α (NBP1-04676, Bio-Techne, Abingdon, UK), PINK1 (BC100-494, Bio-Techne, Abingdon, UK), Parkin (sc-32282, Santa Cruz Biotechnology, Dallas, TX, USA), or Tubulin (Sigma-Aldrich, St. Louis, MO, USA), all at a dilution of 1:500. Alkaline phosphatase-conjugated secondary antibodies and NBT/BCIP (Bio-Rad, VA, USA) were used for detection. Densitometric analysis was performed using Totallab 120 (Nonlinear Dynamics, Newcastle upon Tyne, UK).

PAH rats [3] = assay: Heart weights and Fulton index at sacrifice; type: in vivo, rat; settings: ~6 mg·kg^−1·day^−1 i.p. minipump, 28 days
Procedure: Rats were euthanized under 3–5% isoflurane anesthesia by exsanguination by aorta puncture. Hearts, lungs, and pulmonary arteries were harvested and processed for further analyses. The hearts were weighed and dissected into the left atrium, ventricle, right atrium, and ventricle and septum, which were all individually weighted. The Fulton Index was calculated as: Fulton Index=RV/(LV+IVS) , wherein RV and LV are right and left ventricular weights, respectively, and IVS is the weight of the interventricular septum. The right ventricle was cut in half, and one half was fixed in 3.6% formalin and embedded in paraffin. The other half was snap frozen in liquid nitrogen. The left lung lobe was fixed by filling the airways with 3.6% formalin and embedded in paraffin. The right lung lobe was snap frozen in liquid nitrogen.

PAH rats [4] = assay: Echocardiogram and hemodynamic measurements in monocrotaline + aortocaval shunt PAH rats; type: in vivo, rat; parameters: LVOT VTI / PV Acceleration slope: unit not given here
Procedure: Animal care and experiments were approved by the Institutional Animal Care and Use Committee (CCD # AVD105002015129) and in accordance with the ARRIVE guidelines. Forty (40) male Wistar rats (Harlan, 7–9 weeks old, weighing 276 ± 15 g) were used. PAH was induced by a single i.p. injection of monocrotaline (60 mg·kg^−1) and the placement of an aortocaval shunt one week later as described previously.
The administration of vehicle and SUL-150 started 7 days post-monocrotaline injection and was performed by the i.p. implantation of osmotic minipumps (Alzet model #2004, Durect Corp., Cupertino, CA, USA) at the time of aortocaval shunt placement. The Lynch coil method was used to circumvent compatibility issues with the osmotic minipump reservoir as described previously. Vehicle (dimethyl sulfoxide (DMSO) or SUL-150 ((R)-(6-hydroxy-2,5,7,8-tetramethylchroman-2-yl)(piperazin-1-yl)methanone, 0.9 M in DMSO, Sulfateq BV, Groningen, The Netherlands) was administered at a flow rate of 0.25 µL·h^−1, accumulating to an approximate dose of 6 mg·kg^−1·day^−1 SUL-150 in a 300 g rat. Animals were weighed, watched for dyspnea, cyanosis, and oedema, and sacrificed preterm when a 15% weight loss or debilitating dyspnea occurred.
Echocardiographic (ECG) examination was performed under isoflurane anesthesia (5% in air during induction, 2% in air during maintenance) via inhalation prior to euthanisation using a Vivid Dimension 7 system and 10S-transducer (GE Healthcare, Waukesha, WI, USA). Ventricular dimensions, eccentricity index, and flow profiles over the aortic, pulmonary, and tricuspid valves were measured in standard views. Cardiac output (mL·min^−1) was calculated using the following equation: CO(mL·min^−1)=(LVOTarea×LVOTVTI)×HR , wherein LVOT area is the area of the left ventricular outflow tract, LVOT VTI is the velocity-time integral and HR is heart rate. Subsequent to ECG, invasive hemodynamic measurements were performed using a closed chest technique as described by others. A fluid-filled pressure catheter was inserted into the right internal jugular vein and guided to the pulmonary artery under pressure waveform monitoring using a bedside monitor. Right ventricular systolic and diastolic pressure, pulmonary arterial pressures, and pulmonary wedge pressure were measured. Mean pulmonary arterial pressure (mmHg) was calculated as: mPAP(mmHg)=(2/3dPAP+1/3sPAP) , wherein dPAP and sPAP are diastolic and systolic pulmonary artery pressure, respectively. Total pulmonary vascular resistance was estimated as: PVRmmHg·mL·min^−1=(mPAP−PCWP)/CO , wherein mPAP, mPWP, and CO are mean pulmonary artery pressure, pulmonary capillary wedge pressure, and cardiac output, respectively.

[5] = PAH rats, ~6 mg·kg^−1·day^−1 i.p. minipump, 28 days
[6] = PAH rats, ~6 mg·kg^−1·day^−1 i.p. minipump, 28 days, echocardiography
[7] = PAH rats, ~6 mg·kg^−1·day^−1 i.p. minipump, 28 days, result in words
[8] = SUL-150-treated versus vehicle-treated PAH rats

Cc1c(C)c2c(c(C)c1O)CC[C@](C)(C(=O)N1CCNCC1)O2 [SUL-150, (R)-(6-hydroxy-2,5,7,8-tetramethylchroman-2-yl)(piperazin-1-yl)methanone]
ATP level of the right ventricle [1]: 272.2 ± 26.6 pmol/mg | endogenous radical scavenging activity in right ventricle ([1]; result in words): maintained | lipid peroxidation level in right ventricle ([1]; result in words): decreased lipid peroxidation level to those of sham rats | right ventricular protein expression of PGC1α and mtTFA [2]: did not alter | right ventricular protein expression of PINK1 and Parkin [2]: maintained the expression | Heart weight (relative to body weight) (PAH rats [3]): 4.37 ± 0.66 ^a mg·g^−1 | IVS weight (relative to body weight) (PAH rats [3]): 0.81 ± 0.22 mg/g | LA weight (relative to body weight) (PAH rats [3]): 0.23 ± 0.11 ^a mg·g^−1 | LV weight (relative to body weight) (PAH rats [3]): 1.60 ± 0.29 ^a mg·g^−1 | RA weight (relative to body weight) (PAH rats [3]): 0.38 ± 0.12 ^a mg·g^−1 | RV weight (relative to body weight) (PAH rats [3]): 1.23 ± 0.31 ^a mg·g^−1 | Fulton Index (PAH rats [3]; RV/(LV+IVS)): 0.51 ± 0.09 ^a | Pulmonary artery pressure, Diastolic (PAH rats [4]; [5]): 19.0 ± 5.7 mmHg | Pulmonary artery pressure, Mean (mPAP) (PAH rats [4]; [5]): 27.7 mmHg and 27.7 ± 5.8 mmHg and 27.7 ± 5.8 ^a mmHg | Pulmonary wedge pressure, Mean (PAH rats [4]; [5]): 4.8 ± 1.9 mmHg | Tricuspid valve insufficiency, Average grade (0–3) (PAH rats [4]; [5]): 1.0 ± 1.0 ^a,b | Tricuspid valve insufficiency, Mild (PAH rats [4]; [5]): 14.3% | Tricuspid valve insufficiency, Moderate (PAH rats [4]; [5]): 42.9% | Tricuspid valve insufficiency, Severe (PAH rats [4]; [5]): 0% | Vascular resistance, Pulmonary (PAH rats [4]; PAH rats, ~6 mg·kg^−1·day^−1 i.p. minipump, 28 days, (mPAP−PCWP)/CO): 0.12 ± 0.05 mmHg·min·mL^−1 | LVIDd (PAH rats [4]; [6]): 4.27 ± 0.46 mm | LVOT Pmax (PAH rats [4]; [6]): 5.57 ± 3.73 mmHg | LVOT VTI (PAH rats [4]; [6]): 6.16 ± 2.33 | LVOT Vmax (PAH rats [4]; [6]): 1.12 ± 0.39 m·s^−1 | LVOT diameter (PAH rats [4]; [6]): 3.37 ± 0.24 ^b mm | PAAT (PAH rats [4]; [6]): 17.07 ± 4.17 ms | PV Acceleration slope (PAH rats [4]; [6]): 65.37 ± 19.75 | PV Pmax (PAH rats [4]; [6]): 5.74 ± 1.50 mmHg | PV Vmax (PAH rats [4]; [6]): 1.14 ± 0.19 m·s^−1 | RVIDd (PAH rats [4]; [6]): 3.87 ± 1.37 ^b mm | RVIDd/LVIDd ratio (PAH rats [4]; [6]): 0.92 ± 0.35 | TAPSE (PAH rats [4]; [6]): 2.90 ± 0.49 ^b mm | cardiac output (PAH rats [4]; [7]): normalized | heart rate (PAH rats [4]; [7]): normalized | decrease in diastolic pulmonary artery pressure compared to PAH rats (PAH rats [4]; [8]): 25% | decrease in right ventricle inner diameter in diastole versus PAH rats (PAH rats [4]; [8]): 38% | decrease in right ventricular pressure at diastole versus PAH rats (PAH rats [4]; [8]): 52% | increase in stroke volume compared to vehicle-treated PAH rats (PAH rats [4]; [8]): 68%
